Measurements from patent US8378117B2 (priority 2005, dated 2013).
Like-named read-outs stand apart in the source and are kept apart here.

What was measured:
CB2 receptor = target: T1, CB2 receptor (Homo sapiens, UniProt P34972); assay: Binding assay for CB2 agonists or inverse agonists (SK-N-MC membranes, [3H]-CP-55,940); settings: for inhibition at 0.25 µM: read-out: CB2 receptor binding percent inhibition, test concentration 0.25 μM (footnote 8); for CB2 receptor binding percent inhibition: test concentration not stated
T1 construct: expressed in transfected cells
T1 sequence (P34972 whole entry): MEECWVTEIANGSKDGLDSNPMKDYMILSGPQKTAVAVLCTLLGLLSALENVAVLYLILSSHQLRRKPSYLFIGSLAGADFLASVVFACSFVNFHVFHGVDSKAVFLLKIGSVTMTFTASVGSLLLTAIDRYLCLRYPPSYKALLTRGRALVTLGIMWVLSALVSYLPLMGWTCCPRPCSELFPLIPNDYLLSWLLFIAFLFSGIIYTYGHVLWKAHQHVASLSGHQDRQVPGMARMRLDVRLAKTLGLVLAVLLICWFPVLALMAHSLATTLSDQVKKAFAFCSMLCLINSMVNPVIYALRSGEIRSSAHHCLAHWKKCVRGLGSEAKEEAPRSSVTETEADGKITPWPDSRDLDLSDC
Method in brief: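 Membranes from SK-N-MC cells stably expressing human CB2 were incubated with radioligand and test compounds for 90 min at 30 °C in Tris-HCl buffer, pH 7.5, with MgCl2, EDTA and fatty-acid-free BSA. Filter-bound radioactivity was counted; IC50 was derived by linear regression of percent inhibition.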

CB1 receptor [1] = target: T2, CB1 receptor (Homo sapiens, UniProt P21554); assay: Binding assay for CB1 agonists or inverse agonists (SK-N-MC membranes, [3H]-CP-55,940); settings: for inhibition at 0.25 µM: read-out: CB1 receptor binding percent inhibition, test concentration 0.25 μM (footnote 8); for inhibition at 1 µM: read-out: CB1 receptor binding percent inhibition, test concentration 1 μM (footnote 1); for inhibition at 0.2 µM: read-out: CB1 receptor binding percent inhibition, test concentration 0.2 μM (footnote 2); for CB1 receptor binding percent inhibition: test concentration not stated; for CB1 receptor binding average percent inhibition: value shown is an average percent inhibition (footnote 5), concentration not given; for inhibition at 0.5 µM: read-out: CB1 receptor binding percent inhibition, test concentration 0.5 μM (footnote 10)
T2 construct: expressed in transfected cells
T2 sequence (P21554 whole entry): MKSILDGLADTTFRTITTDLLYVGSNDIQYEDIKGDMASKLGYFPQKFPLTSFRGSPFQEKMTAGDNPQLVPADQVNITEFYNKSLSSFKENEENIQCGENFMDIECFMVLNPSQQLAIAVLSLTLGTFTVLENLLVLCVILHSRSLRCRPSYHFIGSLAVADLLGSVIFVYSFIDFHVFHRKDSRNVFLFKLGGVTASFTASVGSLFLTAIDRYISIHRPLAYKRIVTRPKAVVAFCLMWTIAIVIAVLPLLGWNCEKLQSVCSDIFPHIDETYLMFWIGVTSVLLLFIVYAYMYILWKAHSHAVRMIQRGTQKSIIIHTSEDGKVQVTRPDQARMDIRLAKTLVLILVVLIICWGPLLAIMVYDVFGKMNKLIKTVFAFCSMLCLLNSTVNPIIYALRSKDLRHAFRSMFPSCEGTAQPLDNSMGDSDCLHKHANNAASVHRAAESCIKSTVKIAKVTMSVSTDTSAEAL
Method in brief: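 Membranes from SK-N-MC cells stably expressing human CB1 incubated with compound and [3H]-CP-55,940 ([…]) for 90 min at 30° C in Tris-HCl pH 7.5, MgCl2, EDTA, fatty-acid-free BSA. Non-specific binding defined with 10 uM WIN 55,212; filtration, scintillation count; IC50 by linear regression.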

CB1 receptor [2] = target: T2, CB1 receptor; assay: cell-based
Source text: The CB1 and CB2 receptors are G-protein coupled receptors (GPCR), which influence cell function via the Gi-protein. These receptors modulate the activity of intracellular adenylate cyclase, which in turn produces the intracellular signal messenger cyclic-AMP (cAMP).
At baseline, or during non-ligand bound conditions, these receptors are constitutively active and tonically suppress adenylate cyclase activity. The binding of an agonist causes further receptor activation and produces additional suppression of adenylate cyclase activity. The binding of an inverse agonist inhibits the constitutive activity of the receptors and results in an increase in adenylate cyclase activity.
By monitoring intracellular adenylate cyclase activity, the ability of compounds to act as agonists or inverse agonists can be determined.
Test compounds were evaluated in SK-N-MC cells which, using standard transfection procedures, were stably transfected with human cDNA for pcDNA3-CRE β-gal and pcDNA3 CB1 receptor (human) or pcDNA3 CB2 receptor (human). By expressing CRE β-gal, the cells produced β-galactosidase in response to CRE promoter activation by cAMP. Cells expressing CRE β-gal and either the human CB1 or CB2 receptor will produce less β-galactosidase when treated with a CB1/CB2 agonist and will produce more β-galactosidase when treated with a CB1/CB2 inverse agonist.
The cells were grown in 96-well plates under standard cell culture conditions at 37° C. in a 5% CO2 atmosphere and culture media (wherein the media was supplemented with 2 mM L-glutamine, […] sodium pyruvate, 10% FBS (fetal bovine serum) and antibiotics).
The change in forskolin induced β-galactosidase activity was determined by setting a vehicle treated cell's activity value at 100% and expressing the β-galactosidase activity measured in a corresponding compound treated cell as a percent of the vehicle treated cell activity.
The EC50 value for functional activity for compounds tested was calculated by linear regression and was obtained from studies in which varying compound concentrations were used.
Where an EC50 value was not obtained for a test compound, the value shown (in %) represents change in functional activity and was obtained from a study in which one compound concentration was used.

[3] = Cannabinoid CB1 Receptor Binding IC50, calculated by linear regression from percent inhibition at various test concentrations
[4] = CB1 Receptor Functional Inverse Agonist EC50, forskolin induced β-galactosidase activity, SK-N-MC cells
[5] = forskolin induced β-galactosidase activity, SK-N-MC cells, read-out: CB1 Receptor Functional Inverse Agonist EC50
[6] = read-out: CB2 receptor binding percent inhibition, test concentration 0.2 μM (footnote 2)

Row | SMILES | IC50 (CB1 receptor [1]; [3]) | EC50 (CB1 receptor [2]; [4]) | CB2 receptor binding percent inhibition (CB2 receptor) | inhibition at 1 µM (CB1 receptor [1]) | inhibition at 0.2 µM (CB1 receptor [1]) | also measured
1 | C[C@@H](NC(=O)c1nn(-c2ccc(Cl)cc2Cl)c2c1CCCC/C2=C\c1ccc(Cl)cc1)C1CCCCC1 [Cpd 132, (8E)-8-(4-chloro-benzylidene)-1-(2,4-dichloro-phenyl)-1,4,5,6,7,8-hexahydro-cycloheptapyrazole-3-carboxylic acid [(1R)-1-cyclohexyl-ethyl]-amide] | 5 nM | 10 nM |  |  |  | inhibition at 0.25 µM (CB2 receptor): 42%; inhibition at 0.015 µM (CB1 receptor [1]; read-out: CB1 receptor binding percent inhibition, test concentration 0.015 μM (footnote 7)): 64%; inhibition at 0.25 µM (CB1 receptor [1]): 94%
2 | Cn1nc(/C=C/S(=O)(=O)NN2CCCCC2)c2c1C(Cc1ccc(F)cc1)CCCC2 (stereo not drawn) [Cpd 128, (2E)-2-[8-(4-fluoro-benzyl)-1-methyl-1,4,5,6,7,8-hexahydro-cycloheptapyrazol-3-yl]-ethenesulfonic acid piperidin-1-ylamide] |  |  | 0% | 0% |  | EC50 (CB1 receptor [2]; [5]): 2700 nM
3 | O=C(NN1CCCCC1)c1nn(-c2ccc(Cl)cc2Cl)c2c1CCCC/C2=C\c1ccc(Cl)cc1 [Cpd 133, (8E)-8-(4-chloro-benzylidene)-1-(2,4-dichloro-phenyl)-1,4,5,6,7,8-hexahydro-cycloheptapyrazole-3-carboxylic acid piperidin-1-ylamide] | 100 nM | 30 nM |  |  |  | inhibition at 0.25 µM (CB2 receptor): 29%; inhibition at 0.25 µM (CB1 receptor [1]): 66%
4 | O=C(Nc1ccccn1)c1nn(-c2ccc(Cl)cc2Cl)c2c1CCCC/C2=C\c1ccc(Cl)cc1 [Cpd 152, (8E)-8-(4-chloro-benzylidene)-1-(2,4-dichloro-phenyl)-1,4,5,6,7,8-hexahydro-cycloheptapyrazole-3-carboxylic acid pyridin-2-ylamide] |  |  |  |  | 66% | inhibition at 0.2 µM (CB2 receptor; test concentration 0.2 μM (footnote 2), read-out: CB2 receptor binding percent inhibition): 21%; inhibition at 0.0125 µM (CB1 receptor [1]; read-out: CB1 receptor binding percent inhibition, test concentration 0.0125 μM (footnote 13)): 28%; CB1 receptor binding percent inhibition (CB1 receptor [1]): 47%; EC50 (CB1 receptor [2]; [5]): 200 nM
5 | COc1ccc(/C=C2\CCCCc3c(C(=O)N[C@H](C)C4CCCCC4)nn(-c4ccc(Cl)cc4Cl)c32)cc1 [Cpd 214, (8E)-1-(2,4-dichloro-phenyl)-8-(4-methoxy-benzylidene)-1,4,5,6,7,8-hexahydro-cycloheptapyrazole-3-carboxylic acid [(1R)-1-cyclohexyl-ethyl]-amide] | 7 nM | 30 nM |  |  | 95% | inhibition at 0.2 µM (CB2 receptor; [6]): 43%
6 | CC(NC(=O)c1nn(-c2ccc(Cl)cc2Cl)c2c1CCCC/C2=C\c1ccc(F)cc1)c1ccccn1 (stereo not drawn) [Cpd 224, (8E)-1-(2,4-dichloro-phenyl)-8-(4-fluoro-benzylidene)-1,4,5,6,7,8-hexahydro-cycloheptapyrazole-3-carboxylic acid (1-pyridin-2-yl-ethyl)-amide] | 8 nM | 4 nM |  |  | 87% | inhibition at 0.2 µM (CB2 receptor; [6]): 4%
7 | O=C(NS(=O)(=O)c1ccccc1)c1nn(-c2ccc(Cl)cc2Cl)c2c1CCCC/C2=C\c1ccc(Cl)cc1 [Cpd 136, (8E)-N-[8-(4-chloro-benzylidene)-1-(2,4-dichloro-phenyl)-1,4,5,6,7,8-hexahydro-cycloheptapyrazole-3-carbonyl]-benzenesulfonamide] |  | 30 nM |  |  |  | inhibition at 0.25 µM (CB2 receptor): 18%; inhibition at 0.25 µM (CB1 receptor [1]): 39%
8 | O=C(N[C@@H]1CCc2ccccc21)c1nn(-c2ccc(Cl)cc2Cl)c2c1CCCC/C2=C\c1ccc(F)cc1 [Cpd 207, (8E)-1-(2,4-dichloro-phenyl)-8-(4-fluoro-benzylidene)-1,4,5,6,7,8-hexahydro-cycloheptapyrazole-3-carboxylic acid (1R)-indan-1-ylamide] | 20 nM | 7 nM |  |  | 90% | inhibition at 0.2 µM (CB2 receptor; [6]): 1%
9 | COC(=O)[C@@H](Cc1ccc(O)cc1)NC(=O)c1nn(-c2ccc(Cl)cc2Cl)c2c1CCCCC2Cc1cccc(F)c1 (stereo partly drawn) [Cpd 80, (2R)-2-{[1-(2,4-dichloro-phenyl)-8-(3-fluoro-benzyl)-1,4,5,6,7,8-hexahydro-cycloheptapyrazole-3-carbonyl]-amino}-3-(4-hydroxy-phenyl)-propionic acid methyl ester] | 700 nM | 60 nM | 23% |  |  | CB1 receptor binding average percent inhibition (CB1 receptor [1]): 51%
10 | C[C@H](NS(=O)(=O)/C=C/c1nn(C2CCCCC2)c2c1CCCCC2Cc1cccc(F)c1)c1ccccc1 (stereo partly drawn) [Cpd 75, (2E)-2-[1-cyclohexyl-8-(3-fluoro-benzyl)-1,4,5,6,7,8-hexahydro-cycloheptapyrazol-3-yl]-ethenesulfonic acid [(1S)-1-phenyl-ethyl]-amide] | 200 nM | 70 nM | 27% |  |  | CB1 receptor binding average percent inhibition (CB1 receptor [1]): 77%
11 | O=C(N[C@@H](CO)Cc1ccccc1)c1n[nH]c2c1CCCCC2Cc1cccc(Cl)c1 (stereo partly drawn) [Cpd 167, 8-(3-chloro-benzyl)-1,4,5,6,7,8-hexahydro-cycloheptapyrazole-3-carboxylic acid [(1R)-1-benzyl-2-hydroxy-ethyl]-amide] |  |  |  |  | 57% | inhibition at 0.2 µM (CB2 receptor; [6]): 97%; EC50 (CB1 receptor [2]; CB1 Receptor Functional Agonist EC50, SK-N-MC cells, forskolin induced β-galactosidase activity): 50 nM
12 | O=S(=O)(/C=C/c1nn(-c2ccc(F)cc2F)c2c1CCCCC2Cc1ccc(F)cc1)NN1CCCCC1 (stereo not drawn) [Cpd 122, (2E)-2-[1-(2,4-difluoro-phenyl)-8-(4-fluoro-benzyl)-1,4,5,6,7,8-hexahydro-cycloheptapyrazol-3-yl]-ethenesulfonic acid piperidin-1-ylamide] |  | 60 nM | 0% | 0% |  | 
13 | C[C@H](NS(=O)(=O)/C=C/c1nn(-c2ccc(F)cc2F)c2c1CCCCC2Cc1cccc(F)c1)C1CCCCC1 (stereo partly drawn) [Cpd 94, (2E)-2-[1-(2,4-difluoro-phenyl)-8-(3-fluoro-benzyl)-1,4,5,6,7,8-hexahydro-cycloheptapyrazol-3-yl]-ethenesulfonic acid [(1S)-1-cyclohexyl-ethyl]-amide] |  |  | 1% | 38% |  | EC50 (CB1 receptor [2]; [5]): 200 nM
14 | CCOC(=O)[C@@H]1C2CCC(C2)[C@@H]1NC(=O)c1nn(-c2ccc(F)cc2F)c2c1CCCCC2Cc1cccc(F)c1 (stereo partly drawn) [Cpd 111, (2R,3S)-3-{[1-(2,4-difluoro-phenyl)-8-(3-fluoro-benzyl)-1,4,5,6,7,8-hexahydro-cycloheptapyrazole-3-carbonyl]-amino}-bicyclo[2.2.1]heptane-2-carboxylic acid ethyl ester] |  | 90 nM | 65% | 62% |  | inhibition at 0.5 µM (CB1 receptor [1]): 45%; CB1 receptor binding percent inhibition (CB1 receptor [1]): 54%
15 | C[C@H](NS(=O)(=O)/C=C/c1nn(-c2ccc(F)cc2F)c2c1CCCCC2Cc1ccc(F)cc1)c1ccccc1 (stereo partly drawn) [Cpd 107, (2E)-2-[1-(2,4-difluoro-phenyl)-8-(4-fluoro-benzyl)-1,4,5,6,7,8-hexahydro-cycloheptapyrazol-3-yl]-ethenesulfonic acid [(1S)-1-phenyl-ethyl]-amide] |  |  | 64% | 72% |  | IC50 (CB1 receptor [1]; calculated by linear regression from percent inhibition at various test concentrations, read-out: Cannabinoid CB1 Receptor Binding IC50): 300 nM; inhibition at 0.5 µM (CB1 receptor [1]): 59%; EC50 (CB1 receptor [2]; SK-N-MC cells, forskolin induced β-galactosidase activity, read-out: CB1 Receptor Functional Agonist EC50): 19800 nM
16 | NS(=O)(=O)c1ccc(CNC(=O)c2nn(-c3ccc(Cl)cc3Cl)c3c2CCCC/C3=C\c2ccc(Cl)cc2)cc1 [Cpd 135, (8E)-8-(4-chloro-benzylidene)-1-(2,4-dichloro-phenyl)-1,4,5,6,7,8-hexahydro-cycloheptapyrazole-3-carboxylic acid 4-sulfamoyl-benzylamide] | 50 nM | < 30 nM |  |  |  | inhibition at 0.25 µM (CB2 receptor): 25%; inhibition at 0.25 µM (CB1 receptor [1]): 65%
